Measured values taken from patent publication US20240124409A1, “GUAIANOLIDE SESQUITERPENE LACTONE DERIVATIVES AND PHARMACEUTICAL USE THEREOF” (NANJING UNIVERSITY OF CHINESE MEDICINE, priority 2021, published 2024).

Tests used:
[1] = system: acute gouty arthritis model rats induced by MSU; assay: Rat acute gouty arthritis model induced by MSU; format: in vivo, SD rats
Protocol: During the adaptive feeding period, 2% pentobarbital sodium was used to anesthetize the rats by intraperitoneal injection at a dose of 0.25 mL/100 g. The circumferences of the ankle joints of the parent left hind limbs of the rats were measured. After the adaptive feeding, 2% pentobarbital sodium was used for intraperitoneal injection anesthesia at a dose of 0.25 mL/100 g. After the anesthesia, 8 rats were randomly selected as the blank group, and normal saline was injected into the joint cavity of their left hind limbs. The other rats were injected with 200 μL sodium urate into the joint cavity of the left hind limbs. 6 h after the model establishment, the rats were anesthetized with pentobarbital sodium, and the joint circumference was measured with a 2 mm wide paper strip. According to the joint swelling ratio, the rats were divided into seven groups.
Administration was carried out once at 10.5 h and 22.5 h after the model establishment, respectively.
Joint swelling is one of the main characteristics of acute gouty arthritis model rats induced by MSU. Before the model establishment, and at 6 h, 12 h and 24 h after the model establishment, the circumferences of the ankle joints of the left hind limbs were measured respectively, and the joint swelling ratios were calculated. The circumferences at 0.5 mm below the ankle joints of the left hind feet of rats in each group were measured with a 2 mm wide paper strip and a ruler, the measurement was repeated twice, and the average value was taken to calculate the joint swelling ratio.
Joint swelling ratio=(joint circumference at test time point−initial joint circumference)/initial joint circumference

mouse sepsis model = assay: Mouse sepsis model (LPS), Q-PCR of inflammatory factors; format: in vivo, C57BL/6 mice; set-up: key: relative mRNA by 2^−ΔΔCt, normalized to Gapdh; details: 12 μmol/kg i.g.
From the text: The mice were randomly divided into 8 groups, one of which was randomly selected as the normal group, and the other 7 groups were the model group, the parent drug 1 (0.4 and 4 μmol/kg), the hydrochloride 22 (4 μmol/kg), the fumarate 23 (0.4 and 4 μmol/kg) and dexamethasone (Dex, 12 μmol/kg) groups, respectively, with 6 mice in each group. 5 days before model establishment, the parent drug 1 (0.4 and 4 μmol/kg), the hydrochloride 22 (4 μmol/kg), the fumarate 23 (0.4 and 4 μmol/kg) and Dex (12 μmol/kg) were administered intragastrically. The mice in the normal group and model group were administered intragastrically the same volume of the solvent 0.5% CMC-Na. LPS (10 mg/kg) was injected intraperitoneally 1 hour after administration on the last day to establish a mouse sepsis model.
At 6 h after intraperitoneal injection of LPS, the mice were sacrificed by cervical dislocation, and the abdominal cavity was opened. The lungs, livers and kidneys were taken out, and rinsed twice with pre-cooled PBS. The lung tissues, liver left lobe tissues and kidney tissues of the mice were cut, and fixed with 4% paraformaldehyde for 24-48 h. The remaining tissues were frozen at −70° Cfor subsequent use.
20 mg of kidney, lung and liver tissues were accurately weighed, rinsed with pre-cooled PBS solution, cut into small pieces by ophthalmic surgical scissors, and put into a glass homogenizer, into which was added 1 mL Trizol reagent for grinding to prepare tissue homogenate. Subsequently, the homogenate was transferred into a 1.5 mL EP tube without RNase and lysed on ice for 10 min. 200 μL chloroform was added, and the mixture was shaken violently, stood on ice for 3-5 min, and centrifuged at 12000 rpm and 4° C. for 15 min. The supernatant was aspirated carefully into a new 1.5 mL EP tube without RNase, into which was added the same volume of pre-cooled isopropanol, stood on an ice bath for 30 min, centrifuged at 12000 rpm and 4° C. for 10 min, and the supernatant was discarded. 75% ethanol-DEPC solution was added to wash the precipitate, and the total RNA was obtained by inversion and air drying on flat paper. Subsequently, 10 μL of DEPC treated water was added for dissolution. 1 μL of the total RNA solution was taken, and diluted to 100 times, the OD values of which at 260 nm and 280 nm were measured with a full wavelength microplate reader. If the ratio of OD260/OD280 is between 1.8 and 2.0, it is said that the extracted RNA has a high purity, i.e., it can be used in subsequent experiments.
Subsequent experiments were carried out with 20 μL of a reverse transcription reaction system according to the method described in the kit instructions:
Subsequent experiments were carried out with 20 μL of a reaction system according to the method described in the kit instructions:
The above reagents were added into a micro-reaction tube, sealed with a sealing membrane, and placed in a Q-PCR instrument. The parameters were set according to the following reaction conditions to carry out the amplification experiment. The reaction conditions were as follows:
The threshold cycle (Ct) value of each group was recorded. Calculating and analyzing were carried out by the 2^−ΔΔCt method (the expression level of the control gene Gapdh was set to 1 to correct the expression level of the target gene).

[2] = system: mouse acute lung injury model; assay: Mouse acute lung injury model (LPS), ELISA; format: in vivo, C57BL/6 mice; details: title: serum (text b290: lung tissues), 12 μmol/kg
Protocol: In addition to the normal group injected intragastrically with PBS, other mice were injected intraperitoneally with LPS (7.5 mg/kg) to establish acute lung injury models. Three days before model establishment, the parent drug 1 (0.4 and 4 μmol/kg), the hydrochloride 22 (0.4 and 4 μmol/kg), the fumarate 23 (0.4 and 4 μmol/kg) and the positive drug Dex (12 μmol/kg) were administered intragastrically in advance, and LPS (7.5 mg/kg) was injected intraperitoneally half an hour after administration on the third day.
abdominal cavity was opened. The lungs were taken out, and rinsed twice with pre-cooled PBS. […] The remaining tissues were frozen at −70° C. for subsequent use.
20 mg of lung tissues were accurately weighed, rinsed with pre-cooled PBS solution, cut into small pieces by ophthalmic surgical scissors, and put into a glass homogenizer, into which was added 180 μL PBS (containing 1 mM PMSF). The mixture was homogenized at 60 HZ for 180 s, and centrifuged at 3000 rpm/min at 4° C. for 20 min. 1 μL supernatant was taken, the protein concentration of which was measured with Nanodrop and leveled, and could be used for subsequent experiments.

[3] = Table 12, title 'in lung' (text b281: liver)

SMILES: COc1cc2c(c(OC)c1OC)-c1ccc(OC)c(=O)cc1[C@@H](NC(C)=O)CC2 [colchicine]
- joint swelling ratio ([1]; 6 h after model establishment (before dosing), 0.5 mg/kg i.g.): 16.15 ± 1.37
- joint swelling ratio ([1]; 12 h after model establishment, 0.5 mg/kg i.g.): 29.10 ± 3.17
- joint swelling ratio ([1]; 24 h after model establishment, 0.5 mg/kg i.g.): 23.28 ± 2.14

SMILES: C[C@@H]1C[C@H]2[C@@H]3CCC4=CC(=O)C=C[C@]4(C)[C@@]3(F)[C@@H](O)C[C@]2(C)[C@@]1(O)C(=O)CO [Dex, dexamethasone, reference compound]
- Il1 mRNA expression (mouse sepsis model; [3]): 7.54 ± 0.70
- Il6 mRNA expression (mouse sepsis model; [3]): 4.27 ± 1.33
- Tnf mRNA expression (mouse sepsis model; [3]): 7.04 ± 0.77
- Il1 mRNA expression (mouse sepsis model; kidney): 6.05 ± 1.03
- Il6 mRNA expression (mouse sepsis model; kidney): 5.76 ± 0.72
- Tnf mRNA expression (mouse sepsis model; kidney): 6.62 ± 0.68
- Il1 mRNA expression (mouse sepsis model; lung): 7.20 ± 0.36
- Il6 mRNA expression (mouse sepsis model; lung): 9.88 ± 0.80
- Tnf mRNA expression (mouse sepsis model; lung): 8.99 ± 0.76
- IL-1β [2]: 1873.00 ± 86.52 pg/mL
- IL-6 [2]: 1423.00 ± 168.40 pg/mL

SMILES: C[C@]12C=CC(=O)C=C1CC[C@@H]1[C@@H]2[C@@H](O)C[C@@]2(C)[C@H]1CC[C@]2(O)C(=O)CO [prednisolone]
- joint swelling ratio ([1]; 6 h after model establishment (before dosing), 3.125 mg/kg i.g.): 15.78 ± 1.22
- joint swelling ratio ([1]; 12 h after model establishment, 3.125 mg/kg i.g.): 25.43 ± 2.03
- joint swelling ratio ([1]; 24 h after model establishment, 3.125 mg/kg i.g.): 18.48 ± 1.66
